Reference: patent US20250136607A1 (REGOR PHARMACEUTICALS, INC., priority 2021, published 2025)
Where two headings read alike, the source gives them in different places.

Legend:
[1] = test system: Citrullinated Histone H3 in dHL-60 cells (differentiated HL-60); experiment: dHL-60 Cit-H3 ELISA assay; format: cell-based, human; conditions: Homo sapiens, read-out: Average IC50 Abs
In short: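 HL-60 cells differentiated 72 h with DMF, plated at 1×10^5/well, pretreated 30 min with compound (8-point 3-fold series, 0.2% DMSO), then stimulated 3 h at 37 °C with 25 μM A23187 plus S7 nuclease. Supernatant citrullinated H3 quantified by HRP ELISA at 450 nm; IC50 by four-parameter fit.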

[2] = target: Protein arginine deiminase 4 (PAD4) (Homo sapiens, UniProt Q9UM07); experiment: PAD4 ammonia release assay; format: biochemical; conditions: PAD4 ammonia release assay, BAEE substrate, 60 min at RT; read-out: Average IC50 Abs
Chain of Protein arginine deiminase 4 (PAD4) (Q9UM07 whole entry): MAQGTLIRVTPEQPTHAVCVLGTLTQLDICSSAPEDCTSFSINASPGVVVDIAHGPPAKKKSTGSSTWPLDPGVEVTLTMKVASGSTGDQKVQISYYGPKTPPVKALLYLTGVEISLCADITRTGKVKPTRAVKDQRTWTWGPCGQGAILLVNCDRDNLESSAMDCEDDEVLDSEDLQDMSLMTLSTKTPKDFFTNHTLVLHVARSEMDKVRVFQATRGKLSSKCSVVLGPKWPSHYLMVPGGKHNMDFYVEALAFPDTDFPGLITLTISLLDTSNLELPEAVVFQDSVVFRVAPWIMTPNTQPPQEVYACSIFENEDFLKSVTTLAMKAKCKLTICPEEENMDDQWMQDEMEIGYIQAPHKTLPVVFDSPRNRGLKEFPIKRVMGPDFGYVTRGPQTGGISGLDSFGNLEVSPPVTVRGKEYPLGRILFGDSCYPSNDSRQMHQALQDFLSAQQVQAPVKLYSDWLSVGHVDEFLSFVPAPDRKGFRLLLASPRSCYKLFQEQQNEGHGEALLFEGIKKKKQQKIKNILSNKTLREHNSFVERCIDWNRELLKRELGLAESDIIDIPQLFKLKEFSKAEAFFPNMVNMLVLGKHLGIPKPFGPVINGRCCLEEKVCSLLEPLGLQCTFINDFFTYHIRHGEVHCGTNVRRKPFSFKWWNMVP
In short: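 Ammonia release from BAEE substrate (2× mix 600 μM) was measured after 60 min at RT, following 15 min enzyme–compound preincubation (PAD4 2× 20 nM; pH 8.0 HEPES, 2 mM CaCl2, TCEP; 1.25% DMSO). Detection used OPA/DTT/EDTA for 120 min. % inhibition was taken versus reference-compound and DMSO controls; IC50 by four-parameter logistic fit.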

[3] = HL-60, 3 h, stimulation with 25 μM A23187 for 3 h

Compound	IC50 [1, 3]	IC50 [2]	IC50 ([1]; HL-60, stimulation with 25 μM A23187 for 3 h)
COc1cc(C(=O)N2C[C@H](N)C[C@@H](F)C2)cc2nc(-c3cc4cccc5c4n3CCN5CCCO)n(Cc3cccs3)c12 [Example 37, ((3R,5R)-3-amino-5-fluoropiperidin-1-yl)(2-(1-(3-hydroxypropyl)-2,3-dihydro-1H-pyrrolo[1,2,3-de]quinoxalin-5-yl)-7-methoxy-1-(thiophen-2-ylmethyl)-1H-benzo[d]imidazol-5-yl)methanone]	100 to 500 nM	≤ 100 nM	
COc1cc(C(=O)N2C[C@H](N)C[C@@H](F)C2)cc2nc(-c3cc4cccc5c4n3CCN5CCCO)n(CC3CC(F)(F)C3)c12 [Example 50, ((3R,5R)-3-amino-5-fluoropiperidin-1-yl)(1-((3,3-difluorocyclobutyl)methyl)-2-(1-(3-hydroxypropyl)-2,3-dihydro-1H-pyrrolo[1,2,3-de]quinoxalin-5-yl)-7-methoxy-1H-benzo[d]imidazol-5-yl)methanone]	100 to 500 nM	≤ 100 nM	
CCn1cc(Cn2c(-c3cc4cccc5c4n3CCN5)nc3cc(C(=O)N4C[C@H](N)C[C@@H](F)C4)cc(F)c32)cn1 [Example 40, ((3R,5R)-3-amino-5-fluoropiperidin-1-yl)(2-(2,3-dihydro-1H-pyrrolo[1,2,3-de]quinoxalin-5-yl)-1-((1-ethyl-1H-pyrazol-4-yl)methyl)-7-fluoro-1H-benzo[d]imidazol-5-yl)methanone]	500 to 5000 nM	100 to 500 nM	
CCn1cc(Cn2c(-c3cc4cccc5c4n3CCN5CCCO)nc3cc(C(=O)N4C[C@H]5CC[C@@H]4[C@@H]5N)cc(F)c32)cn1 [Example 42, ((1R,4R,7R)-7-amino-2-azabicyclo[2.2.1]heptan-2-yl)(1-((1-ethyl-1H-pyrazol-4-yl)methyl)-7-fluoro-2-(1-(3-hydroxypropyl)-2,3-dihydro-1H-pyrrolo[1,2,3-de]quinoxalin-5-yl)-1H-benzo[d]imidazol-5-yl)methanone]	500 to 5000 nM	100 to 500 nM	
CCn1cc(Cn2c(-c3cc4cccc5c4n3CCN5CCCO)nc3cc(C(=O)N4C[C@H](N)C[C@@H](F)C4)cc(OC)c32)cn1 [Example 34, ((3R,5R)-3-amino-5-fluoropiperidin-1-yl)(1-((1-ethyl-1H-pyrazol-4-yl)methyl)-2-(1-(3-hydroxypropyl)-2,3-dihydro-1H-pyrrolo[1,2,3-de]quinoxalin-5-yl)-7-methoxy-1H-benzo[d]imidazol-5-yl)methanone]		≤ 100 nM	500 to 5000 nM
COc1cc(C(=O)N2CCC[C@@H](N)C2)cc2nc(-c3cc4cccc5c4n3CCN5CCCO)n(C)c12 [Example 12, (R)-(3-aminopiperidin-1-yl)(2-(1-(3-hydroxypropyl)-2,3-dihydro-1H-pyrrolo[1,2,3-de]quinoxalin-5-yl)-7-methoxy-1-methyl-1H-benzo[d]imidazol-5-yl)methanone]	500 to 5000 nM	100 to 500 nM	
C#CCn1c(-c2cc3cccc4c3n2CCN4CCCO)nc2cc(C(=O)N3C[C@H](N)C[C@@H](F)C3)cc(OC)c21 [Example 49, ((3R,5R)-3-amino-5-fluoropiperidin-1-yl)(2-(1-(3-hydroxypropyl)-2,3-dihydro-1H-pyrrolo[1,2,3-de]quinoxalin-5-yl)-7-methoxy-1-(prop-2-yn-1-yl)-1H-benzo[d]imidazol-5-yl)methanone]	500 to 5000 nM	100 to 500 nM	
COc1cc(C(=O)N2C[C@H](N)C[C@@H](F)C2)cc2nc(-c3cc4cccc5c4n3CCN5CCCO)n(CC(F)(F)F)c12 [Example 23, ((3R,5R)-3-amino-5-fluoropiperidin-1-yl)(2-(1-(3-hydroxypropyl)-2,3-dihydro-1H-pyrrolo[1,2,3-de]quinoxalin-5-yl)-7-methoxy-1-(2,2,2-trifluoroethyl)-1H-benzo[d]imidazol-5-yl)methanone]	100 to 500 nM	100 to 500 nM	

The next lines start with results.

IC50 [1, 3]	IC50 [2]	Compound	IC50 ([1]; HL-60, stimulation with 25 μM A23187 for 3 h)
100 to 500 nM	100 to 500 nM	CCC1CNc2cccc3cc(-c4nc5cc(C(=O)N6C[C@H]7CC[C@@H]6[C@@H]7N)cc(F)c5n4C)n1c23 (stereo partly drawn) [Example 72, ((1R,4R,7R)-7-amino-2-azabicyclo[2.2.1]heptan-2-yl)(2-(3-ethyl-2,3-dihydro-1H-pyrrolo[1,2,3-de]quinoxalin-5-yl)-7-fluoro-1-methyl-1H-benzo[d]imidazol-5-yl)methanone]	
500 to 5000 nM	≤ 100 nM	COc1cc(C(=O)N2C[C@H](N)C[C@@H](F)C2)cc2nc(-c3cc4cccc5c4n3CCN5CCCO)n(CC3CC3)c12 [Example 59, ((3R,5R)-3-amino-5-fluoropiperidin-1-yl)(1-(cyclopropylmethyl)-2-(1-(3-hydroxypropyl)-2,3-dihydro-1H-pyrrolo[1,2,3-de]quinoxalin-5-yl)-7-methoxy-1H-benzo[d]imidazol-5-yl)methanone]	
≤ 100 nM	≤ 100 nM	Cn1c(-c2cc3ccc4c(c3n2CC2CC2)NCCS4)nc2cc(C(=O)N3C[C@H]4CC[C@@H]3[C@@H]4N)cc(F)c21 [Example 161, ((1R,4R,7R)-7-amino-2-azabicyclo[2.2.1]heptan-2-yl)(2-(9-(cyclopropylmethyl)-1,2,3,9-tetrahydro-[1,4]thiazino[2,3-g]indol-8-yl)-7-fluoro-1-methyl-1H-benzo[d]imidazol-5-yl)methanone]	
100 to 500 nM	100 to 500 nM	CCC1CN(CCCOC)c2cccc3cc(-c4nc5cc(C(=O)N6C[C@H]7CC[C@@H]6[C@@H]7N)cc(F)c5n4CC)n1c23 (stereo partly drawn) [Example 100, ((1R,4R,7R)-7-amino-2-azabicyclo[2.2.1]heptan-2-yl)(1-ethyl-2-(3-ethyl-1-(3-methoxypropyl)-2,3-dihydro-1H-pyrrolo[1,2,3-de]quinoxalin-5-yl)-7-fluoro-1H-benzo[d]imidazol-5-yl)methanone]	
100 to 500 nM	≤ 100 nM	Cn1c(-c2cc3ccc4c(c3n2CC2CC2)NCC4)nc2cc(C(=O)N3C[C@H]4CC[C@@H]3[C@@H]4N)cc(F)c21 [Example 147, ((1R,4R,7R)-7-amino-2-azabicyclo[2.2.1]heptan-2-yl)(2-(1-(cyclopropylmethyl)-1,6,7,8-tetrahydropyrrolo[3,2-g]indol-2-yl)-7-fluoro-1-methyl-1H-benzo[d]imidazol-5-yl)methanone]	
≤ 100 nM	≤ 100 nM	Cn1c(-c2cc3ccc(S(C)(=O)=O)c4c3n2C(C2CC2)CN4)nc2cc(C(=O)N3C[C@H]4CC[C@@H]3[C@@H]4N)cc(F)c21 (stereo partly drawn) [Example 123, ((1R,4R,7R)-7-amino-2-azabicyclo[2.2.1]heptan-2-yl)(2-(3-cyclopropyl-9-(methylsulfonyl)-2,3-dihydro-1H-pyrrolo[1,2,3-de]quinoxalin-5-yl)-7-fluoro-1-methyl-1H-benzo[d]imidazol-5-yl)methanone]	
≤ 100 nM	≤ 100 nM	Cn1c(-c2cc3ccc(C#N)c4c3n2C(C2CC2)CN4)nc2cc(C(=O)N3C[C@H]4CC[C@@H]3[C@@H]4N)cc(F)c21 (mixture of isomers) [Example 114, 5-(5-((1R,4R,7R)-7-amino-2-azabicyclo[2.2.1]heptane-2-carbonyl)-7-fluoro-1-methyl-1H-benzo[d]imidazol-2-yl)-3-cyclopropyl-2,3-dihydro-1H-pyrrolo[1,2,3-de]quinoxaline-9-carbonitrile]	
≤ 100 nM	≤ 100 nM	Cn1c(-c2cc3ccc4cn[nH]c4c3n2CC2CC2)nc2cc(C(=O)N3C[C@H]4CC[C@@H]3[C@@H]4N)cc(F)c21 [Example 157, ((1R,4R,7R)-7-amino-2-azabicyclo[2.2.1]heptan-2-yl)(2-(8-(cyclopropylmethyl)-1,8-dihydropyrrolo[3,2-g]indazol-7-yl)-7-fluoro-1-methyl-1H-benzo[d]imidazol-5-yl)methanone]	
